{
  "source": "patent US10851152B2",
  "about": "“Polymerized peptide and gel having collagen-like structure” (WASEDA UNIVERSITY, priority 2015, dated 2020)",
  "key": {"HDF": {"system": "HDF", "assay": "Cell adhesion assay on coated 96-well plate, HDF", "assay_type": "cell-based, Human", "conditions": "37° C., 5% CO2, 60 min", "description": "(§1) D-MEM High Glucose, D-MEM Low Glucose and 0.5% trypsin/EDTA were purchased from Wako Pure Chemical Industries, Ltd. (Osaka); FBS, penicillin. streptomycin (100×) were purchased from Invitrogen (Thermo Fisher Scientific corporation). Human mammary gland cancer (MDA-MB-231) was purchased from ATCC; Human skin fibroblasts (HDF) were purchased from Cell Applications. MDA-MB-231 was cultured using DMEM High Glucose (10% FBS, 100 Units/ml penicillin, 100 μg/ml streptomycin), and then maintained; and HDF was cultured using DMEM Low Glucose (10% FBS, 100 Units/ml penicillin, 100 μg/ml streptomycin), and then maintained. When used in cell adhesion assay and Western blotting, the cells were treated with 0.05% trypsin/EDTA, and then collected in a 15 ml tube to be subjected to centrifugal treatment at 1,200 rpm for four minutes. After the removal of the supernatant, the cells were suspended with an incubation medium by which the cells were incubated at 37° C. for 20 to 30 min and then recovered. Such cell suspension was used for cell adhesion assay and Western blotting.\n(§2) Type I collagen (KOKEN CO., LTD, Tokyo) and BSA (Jackson Immuno Research Laboratories Inc., USA), in an aqueous solution as 30 μg/ml, were added to a 96-well plate (Nunc MicroWell 96-Well Microplates) by an amount of 50 μl/well, followed by drying the sample for two nights. Collagen-like peptides having no Cys residue were prepared as aqueous solutions of 1 to 3 mg/ml, and then heated at 95° C. for 5 min, followed by storing them at 4° C. overnight to form the triple-helical structure. Then, they were diluted to 30 μg/ml, and then added to a 96-well plate in an amount of 50 μl/well followed by drying them for two nights. Collagen-like peptides having Cys residues were dissolved in a degassed 0.05% (v/v) TFA aqueous solution, followed by preparing to a concentration of 300 μg/ml, and then heating the sample at 80° C. for 5 min. […] Further, a mineral oil was layered on the peptide solution, and such peptide solution was then oxidized at room temperature until thiol could no longer be detected by Ellman's test. […]"}, "[1]": {"assay": "CD spectrum measurement of triple-helical structure and its thermal stability", "assay_type": "physicochemical", "conditions": "1 mg/ml in 0.05% TFA/H2O; measured at 4° C., 37° C. and 80° C.", "description": "The structure of the peptide was confirmed by CD spectrum (circular dichroism spectrometer J-820, JASCO Corporation). A peptide powder was dissolved in a degassed 0.05% TFA/H2O to prepare a solution of 1 mg/ml. After heating at 80° C. for 5 min, the solution was left to stand at 4° C. overnight to cause refolding as a measurement sample. CD spectrum was measured under the conditions of: temperature 4° C., 37° C., 80° C.; cell length 0.05 cm; sensitivity standard (100 mdeg); measurement wavelength 250 to 190 nm; data collection interval 0.2 nm; scanning speed 50 nm/min; response 0.5 sec; band width 1 nm; cumulated number 4. A signal obtained (θobs) was expressed as a residue average molar ellipticity (θmrw). θmrw was calculated by the following formula.\nA thermal stability of the triple-helical structure was observed by monitoring θmrw, 225 associated with a change in temperature. The measurement conditions were: 4 to 75° C. or 4 to 90° C.; cell length 0.05 cm; measurement wavelength 225 nm; data collection interval 0.5° C.; temperature gradient 18° C./h; sensitivity standard (100 mdeg); response 2 sec; band width 1 nm. It was determined that the triple-helical structure completely turned into a random coil structure in a region where the signal was linearly diminishing."}, "[2]": {"assay": "Remaining thiol group (Ellman's reagent) in oxidative polymerization reaction", "assay_type": "physicochemical", "conditions": "SH amount at 0 hour being 100%; 10% DMSO, peptide 1% (w/v); 74 hours", "description": "Degassed water was used to prepare a peptide solution having a concentration of 1.11% (w/v), and the solution was then put into a PCR tube. After heating this solution at 80° C. for 5 min, it was then left to sand still at 4° C. overnight. By adding DMSO to this solution, there was prepared a peptide solution having a final concentration of 10% DMSO, peptide 1% (w/v). The PCR tube was then filled with a mineral oil in a way such that the mineral oil covered the surface of the solution. In every measurement, the mineral oil was eliminated from the peptide solution to prepare a peptide solution for oxidation monitoring. Ellman's reagent was prepared in a way such that 9 mg/ml of DTNB was present in 50 mM of a phosphate buffer solution (pH 8.4). 33 mM phosphate buffer solution (pH 8.4) and Ellman's reagent 1.5 mg/ml were left to stand for […], then a light absorbance was then measured after a solution with a final concentration of peptide 0.167 mg/ml. Recorded were changes in absorbance with time, with a moment when DMSO was added being a starting point (0 hour). Since the Ellman's reagent generates 5-mercapto-2-nitrobenzoate (λ max=412 nm, ε=1.55×10^4) depending on the amount of thiol groups (referred to as “SH groups” hereunder) in the peptide, measured was a absorbance at 412 nm. After the measurement, optical path length was compensated by measuring absorbance at 997 nm and 900 nm."}, "[3]": {"assay": "Hydrogel formation judged by holding of a stainless ball", "assay_type": "physicochemical", "conditions": "1% (w/v) peptide, 10% DMSO, room temperature, up to three days", "description": "Degassed water was used to prepare a peptide solution having a concentration of 1.11% (w/v) or 1.66% (w/v), and the solution was then put into a PCR tube. After heating this solution at 80° C. for 5 min using a polymerase chain reaction (PCR) machine (TaKaRa PCR Thermal Cycler, TAKARA BIO INC.), the solution was then left to stand at 4° C. overnight. By adding DMSO and water to this solution, there was prepared a peptide solution having a concentration of 10% DMSO, 0.1 to 1.5% (w/v). The PCR tube was then filled with a mineral oil in a way such that the mineral oil covered the liquid surface, followed by allowing the solution to stand at room temperature for a given period of time to achieve a gel. Then, gel formation was determined by looking at whether a stainless ball could be held by the gel."}, "MDA-MB-231": {"system": "MDA-MB-231", "assay": "Cell adhesion assay on coated 96-well plate, MDA-MB-231", "assay_type": "cell-based, Human", "description": "as §1, §2"}},
  "note": "Non-standard residues stand in square brackets, D forms with d. No end group written: not given here. Hyp = O=C(O)[C@@H]1C[C@@H](O)CN1",
  "data": [
    {"substance": "G(POG)4PRGQOGVMGFOG(POG)4-NH2 [Soluble GVMGFO]", "values": [
      {"measurement": "cell adhesion of HDF", "setting": "HDF", "value": "cellular adhesion was not observed"}
    ]},
    {"substance": "YCCGPPOGGOPOGPPOGGOPOGRPOGPPOGGOPOGCCY (YCCGPP[Hyp]GG[Hyp]P[Hyp]GPP[Hyp]GG[Hyp]P[Hyp]GRP[Hyp]GPP[Hyp]GG[Hyp]P[Hyp]GCCY; not fully specified; cysteine pairing not given here) [YCC2-Scr]", "values": [
      {"measurement": "formation of triple-helical structure (CD spectrum, positive Cotton effect at about 225 nm)", "setting": "[1]", "value": "did not form the triple-helical structure"},
      {"measurement": "ratio of SH amount", "setting": "[2]", "value": "approximately 0%"},
      {"measurement": "gel-forming capability", "setting": "[3]", "value": "did not turn into a gel"}
    ]},
    {"substance": "Ac-G(POG)4FOGERG(POG)5-NH2 (GPPGPPGPPGPPGFPGERGPPGPPGPPGPPGPPG; HELM PEPTIDE1{[ac].G.P.[Hyp].G.P.[Hyp].G.P.[Hyp].G.P.[Hyp].G.F.[Hyp].G.E.R.G.P.[Hyp].G.P.[Hyp].G.P.[Hyp].G.P.[Hyp].G.P.[Hyp].G.[am]}$$$$V2.0; SMILES CC(=O)NCC(=O)N1CCC[C@H]1C(=O)N1C[C@H](O)C[C@H]1C(=O)NCC(=O)N1CCC[C@H]1C(=O)N1C[C@H](O)C[C@H]1C(=O)NCC(=O)N1CCC[C@H]1C(=O)N1C[C@H](O)C[C@H]1C(=O)NCC(=O)N1CCC[C@H]1C(=O)N1C[C@H](O)C[C@H]1C(=O)NCC(=O)N[C@@H](Cc1ccccc1)C(=O)N1C[C@H](O)C[C@H]1C(=O)NCC(=O)N[C@@H](CCC(=O)O)C(=O)N[C@@H](CCCNC(=N)N)C(=O)NCC(=O)N1CCC[C@H]1C(=O)N1C[C@H](O)C[C@H]1C(=O)NCC(=O)N1CCC[C@H]1C(=O)N1C[C@H](O)C[C@H]1C(=O)NCC(=O)N1CCC[C@H]1C(=O)N1C[C@H](O)C[C@H]1C(=O)NCC(=O)N1CCC[C@H]1C(=O)N1C[C@H](O)C[C@H]1C(=O)NCC(=O)N1CCC[C@H]1C(=O)N1C[C@H](O)C[C@H]1C(=O)NCC(N)=O) [Soluble GFOGER]", "values": [
      {"measurement": "cell adhesion of MDA-MB-231", "setting": "MDA-MB-231; coated 96-well plate", "value": "cell adhesion was not observed"},
      {"measurement": "cell adhesion of HDF", "setting": "HDF", "value": "cellular adhesion was not observed"}
    ]},
    {"substance": "G(POG)7IKGHRGFSGLOG(POG)6-NH2 [Soluble KGHRGF]", "values": [
      {"measurement": "cell adhesion of HDF", "setting": "HDF", "value": "cellular adhesion was not observed"}
    ]},
    {"substance": "YCC(POG)5FOGERG(POG)5CCY (YCCP[Hyp]GP[Hyp]GP[Hyp]GP[Hyp]GP[Hyp]GF[Hyp]GERGP[Hyp]GP[Hyp]GP[Hyp]GP[Hyp]GP[Hyp]GCCY; not fully specified; cysteine pairing not given here) [YCC2-GFOGER]", "values": [
      {"measurement": "content of YCC2-GFOGER giving the same level of cell adhesion capability as collagen", "setting": "MDA-MB-231; mixed polymerized peptide of YCC2 and YCC2-GFOGER, MDA-MB-231, 180 min", "value": 30, "unit": "%"}
    ]}
  ]
}
